Experimental findings from US12427212B2, “Nectin-4 binding miniproteins, conjugates and uses thereof” (Aktis Oncology, Inc., priority 2023, dated 2025) are described below.

Data set [1] concerns Opossum kidney proximal tubule cells. Briefly: Proximal tubule epithelial cell uptake assay. It counts as cell-based. Particulars: for % Uptake of C306 (Control): Table 10A, mean percent uptake in opossum kidney cells; for % Uptake of C306 (Control) / % Uptake of C306: relative to control miniprotein C306; for % Uptake of C306: Table 10B, modified lysine miniproteins. How it is done:
FIG. 8 is a bar graph of the percent uptake of exemplary miniproteins tested at 20 µM in a proximal tubule epithelial cell assay vs 20 μM control peptide set at 100%. […]
Opossum kidney proximal tubule cells were plated in the upper chamber of 24-well transwell plates containing 600 μL of growth media in the lower chamber and were incubated overnight at 37° C., in 5% CO2. The following day, the media was changed, and cells were incubated an additional 24 h with orbital shaking at 146 RPM. Next, cells were washed and treated in duplicates with biotinylated exemplary miniproteins pre-complexed with streptavidin-AF647 for 1 h at 37° C., and 5% C02 with continuous orbital shaking. Following incubation, cells were washed three times with 1×PBS and lysed with RIPA buffer containing protease and phosphatase inhibitor cocktail and a universal nuclease for 30 minutes. Uptake was measured on 100 μL of lysates using a fluorimeter. Mean % uptake values of control miniprotein C306 in the presence of exemplary miniproteins are provided in TABLE 10A and summarized in FIG. 8.
Uptake of engineered Nectin-4 miniproteins with further modified lysine residues (C298-C304, as described in Example 4B) was evaluated. Percent uptake of these exemplary Nectin-4-targeting miniproteins and C251 were determined against a control miniprotein, C306, using opossum kidney proximal tubule cells as described in Example 18A. Percent uptake of C298, which has an unmodified lysine (K) at amino acid position 26 (along the length of the miniprotein sequence. SEQ ID NO: 162), was 37% in the presence of […]. All other miniproteins having a modified lysine (modified with one or more small alkyl groups of monomethyl, dimethyl, trimethyl, or isopropyl group) had (i) kidney uptake similar to that of C251 and (ii) reduced uptake as compared to C298, which has an unmodified lysine at position 26.

Data set [2] can be described thus: In vitro metabolic stability in serum/plasma (percent parent remaining, LC-MS). It counts as in vitro ADME. Conditions: mouse. How it is done:
Exemplary miniproteins were spiked into biological matrices at initial concentration between 1-2 μM. Tested matrices were varied by species (mouse, rat, human) and type (plasma, serum, and kidney brush border membrane (kBBM) preparations tested each from 0.625-100 μg/mL protein content). Tested conditions were incubated with miniproteins at 37° C. for 4 h. At collection points of 0, 15, 30, 60, 120, 240 minutes, 50 μL of each condition were quenched by organic solvent (methanol or acetonitrile) or the addition of 4% phosphoric acid solution followed by solid-phase extraction. Fractions of each quenched timepoint were subsequently assayed for parent miniproteins concentration by high resolution LC-MS. Percent-parent-remaining-time plots were constructed from the ratio of each given time collection to the time-zero parent miniprotein. Percent-parent-remaining in mouse serum and plasma for exemplary miniproteins are recorded in TABLE 11.

A short description of data set [3]: In vivo biodistribution of 111In-labeled miniproteins by SPECT/CT, HT-1376 xenograft. Also noted: species or system mouse. Conditions: female, athymic nude, mouse, in vivo. An excerpt:
HT-1376 is a human cell line that expresses Nectin-4.
Humane endpoints: All animals were euthanized following the final imaging time point and carcasses were discarded according to IACUC protocols.
Image Processing: Images were generated as SPECT/CT pairs with the SPECT reported in units of activity.
Image generation: After the preprocessing described in A, individual maximum intensity projections (MIPs) were created with VivoQuant software for each subject at each time point and scaled in percent injected dose per gram (% ID/g). The CT for each image was windowed from −500 to 4500 Hounsfield Units (HU). The SPECT was windowed at various ranges to highlight different regions of uptake. Images were then stitched together using Image Magick based python tools to create montages of subjects over time and time points over groups.

[4] abbreviates: opossum kidney proximal tubule cells.

Bridges are numbered along the chain shown (N, C = ends). Primed or numbered codes have the meaning given here. [ ]: non-standard residue; d: D form. The star is where a group is joined. DOTA = O=C(O)CN1CCN(CC(=O)O)CCN(CC(=O)*)CCN(CC(=O)O)CC1; Biotin = O=C1N[C@H]2[C@H](CS[C@H]2CCCCC(=O)*)N1; Lys(Me3) = C[N+](C)(C)CCCC[C@H](N)C(=O)O; Lys(iPr) = CC(C)NCCCC[C@H](N)C(=O)O; Lys(Me) = CNCCCC[C@H](N)C(=O)O; PEG4 = NCCOCCOCCOCCOCCC(=O)O; PEG4′ = not defined here

Turning to `CC[C@H](C)[C@@H]1NC(=O)[C@H](Cc2ccc(O)cc2)NC(=O)[C@H](Cc2ccc(O)cc2)NC(=O)[C@@H]2CSSC[C@@H](C(=O)N[C@@H](CO)C(=O)O)NC(=O)CNC(=O)[C@H](CC(C)C)NC(=O)[C@H](CC(N)=O)NC(=O)[C@H](CC(=O)O)NC(=O)[C@H](CC(C)C)NC(=O)[C@H]([C@@H](C)CC)NC(=O)[C@H](CCC(=O)O)NC(=O)[C@H](CCC(=O)O)NC(=O)[C@H]([C@@H](C)CC)NC(=O)[C@H](CSSC[C@H](NC(=O)CCOCCOCCOCCOCCNC(=O)CCCC[C@@H]3SC[C@@H]4NC(=O)N[C@@H]43)C(=O)N[C@@H](CCC(=O)O)C(=O)N[C@@H](Cc3ccc(O)cc3)C(=O)N[C@@H](CC(=O)O)C(=O)N[C@@H](CCC(=O)O)C(=O)N[C@@H](CCC(=O)O)C(=O)N[C@@H](Cc3ccccc3)C(=O)N[C@@H](Cc3ccccc3)C(=O)N[C@@H]([C@@H](C)O)C(=O)N[C@@H](C)C(=O)N[C@@H](CC(C)C)C(=O)N[C@@H](CCCCN)C(=O)N[C@@H](CCCNC(=N)N)C(=O)N[C@@H](CC(C)C)C(=O)N[C@@H](CCCNC(=N)N)C(=O)NCC(=O)NCC(=O)N[C@@H](CC(=O)O)C(=O)N[C@@H]([C@@H](C)CC)C(=O)N2)NC(=O)[C@H](CC(C)C)NC(=O)CNC(=O)[C@@H]2CCCN2C(=O)[C@H](CC(C)C)NC(=O)[C@H](Cc2ccc(O)cc2)NC(=O)[C@H](CCC(N)=O)NC(=O)[C@H](Cc2ccccc2)NC(=O)[C@H](CO)NC(=O)[C@H](C)NC(=O)[C@H](CCC(N)=O)NC1=O` [Compound C111], in data set [1] (1 h at 37° C.), the “% Uptake of C306 (Control)” value is 20.8%.
With `CC[C@H](C)[C@@H]1NC(=O)[C@H](Cc2ccc(O)cc2)NC(=O)[C@H](CCC(N)=O)NC(=O)[C@@H]2CSSC[C@@H](C(=O)N[C@@H](CO)C(=O)O)NC(=O)CNC(=O)[C@H](CC(C)C)NC(=O)[C@H](CC(N)=O)NC(=O)[C@H](CC(=O)O)NC(=O)[C@H](CC(C)C)NC(=O)[C@H]([C@@H](C)CC)NC(=O)[C@H](CCC(=O)O)NC(=O)[C@H](CCC(=O)O)NC(=O)[C@H]([C@@H](C)CC)NC(=O)[C@H](CSSC[C@H](NC(=O)CCOCCOCCOCCOCCNC(=O)CCCC[C@@H]3SC[C@@H]4NC(=O)N[C@@H]43)C(=O)N[C@@H](CCC(=O)O)C(=O)N[C@@H](Cc3ccc(O)cc3)C(=O)N[C@@H](CC(=O)O)C(=O)N[C@@H](CCC(=O)O)C(=O)N[C@@H](CCC(=O)O)C(=O)N[C@@H](Cc3ccccc3)C(=O)N[C@@H](Cc3ccccc3)C(=O)N[C@@H]([C@@H](C)O)C(=O)N[C@@H](C)C(=O)N[C@@H](CC(C)C)C(=O)N[C@@H](C)C(=O)N[C@@H](CCCNC(=N)N)C(=O)N[C@@H](CC(C)C)C(=O)N[C@@H](CCCNC(=N)N)C(=O)NCC(=O)NCC(=O)N[C@@H](CC(=O)O)C(=O)N[C@@H]([C@@H](C)CC)C(=O)N2)NC(=O)[C@H](CC(C)C)NC(=O)[C@H](C)NC(=O)[C@@H]2CCCN2C(=O)[C@H](CC(C)C)NC(=O)[C@H](Cc2ccc(O)cc2)NC(=O)[C@H](CCC(N)=O)NC(=O)[C@H](Cc2ccccc2)NC(=O)[C@H](CCCCN(C)C)NC(=O)[C@H](C)NC(=O)[C@H](CCC(N)=O)NC1=O` [Compound C300], in data set [1] (setting [4]), the “% Uptake of C306” value was found to be 3%.
For the compound “{Biotin-PEG4}-CEYDEEFFTAL[Lys(iPr)]RLRGGDICQYIQA[Lys(Me3)]FQYLPALCIEEILDNLGCS-OH (disulfide 1-34, 20-44) [Compound C304]”, in data set [1] (setting [4]), the “% Uptake of C306” value is reported as 2%.
For “{Biotin-PEG4}-CEYDEQFFTALARLRGGDICEYIQARFQYLPGLCIEEILDNLGCS-OH (disulfide 1-34, 20-44) [Compound C264]”, the “% Uptake of C306 (Control)” value in data set [1] (1 h at 37° C.) was found to be 0.859%.
Turning to `CC[C@H](C)[C@@H]1NC(=O)[C@H](Cc2ccc(O)cc2)NC(=O)[C@H](CCC(=O)O)NC(=O)[C@@H]2CSSC[C@@H](C(=O)N[C@@H](CO)C(=O)O)NC(=O)CNC(=O)[C@H](CC(C)C)NC(=O)[C@H](CC(N)=O)NC(=O)[C@H](CC(=O)O)NC(=O)[C@H](CC(C)C)NC(=O)[C@H]([C@@H](C)CC)NC(=O)[C@H](CCC(=O)O)NC(=O)[C@H](CCC(=O)O)NC(=O)[C@H]([C@@H](C)CC)NC(=O)[C@H](CSSC[C@H](NC(=O)CCOCCOCCOCCOCCNC(=O)CN3CCN(CC(=O)O)CCN(CC(=O)O)CCN(CC(=O)O)CC3)C(=O)N[C@@H](CC(=O)O)C(=O)N[C@@H](Cc3ccc(O)cc3)C(=O)N[C@@H](CC(=O)O)C(=O)N[C@@H](CCC(=O)O)C(=O)N[C@@H](CCC(N)=O)C(=O)N[C@@H](Cc3ccccc3)C(=O)N[C@@H](Cc3ccccc3)C(=O)N[C@@H]([C@@H](C)O)C(=O)N[C@@H](C)C(=O)N[C@@H](CC(C)C)C(=O)N[C@@H](CCCCN)C(=O)N[C@@H](CCCNC(=N)N)C(=O)N[C@@H](CC(C)C)C(=O)N[C@@H](CCCNC(=N)N)C(=O)NCC(=O)N[C@@H](C)C(=O)N[C@@H](CC(=O)O)C(=O)N[C@@H]([C@@H](C)CC)C(=O)N2)NC(=O)[C@H](CCC(=O)O)NC(=O)CNC(=O)[C@@H]2CCCN2C(=O)[C@H](CC(C)C)NC(=O)[C@H](Cc2ccc(O)cc2)NC(=O)[C@H](CCC(N)=O)NC(=O)[C@H](Cc2ccccc2)NC(=O)[C@H](CO)NC(=O)[C@H](C)NC(=O)[C@H](CCC(N)=O)NC1=O` [Compound C271], in data set [2], the half-life is more than 12 h. In addition, the half-life in data set [2] (plasma) was more than 12 h. In data set [3], this compound yielded a tissue uptake at 4 h of 59.1 %ID/g and a tissue uptake at 24 h of 34.3 %ID/g.
As for `CC[C@H](C)[C@@H]1NC(=O)[C@H](Cc2ccc(O)cc2)NC(=O)[C@H](CCC(N)=O)NC(=O)[C@@H]2CSSC[C@@H](C(=O)N[C@@H](CO)C(=O)O)NC(=O)CNC(=O)[C@H](CC(C)C)NC(=O)[C@H](CC(N)=O)NC(=O)[C@H](CC(=O)O)NC(=O)[C@H](CC(C)C)NC(=O)[C@H]([C@@H](C)CC)NC(=O)[C@H](CCC(=O)O)NC(=O)[C@H](CCC(=O)O)NC(=O)[C@H]([C@@H](C)CC)NC(=O)[C@H](CSSC[C@H](NC(=O)CCOCCOCCOCCOCCNC(=O)CCCC[C@@H]3SC[C@@H]4NC(=O)N[C@@H]43)C(=O)N[C@@H](CCC(=O)O)C(=O)N[C@@H](Cc3ccc(O)cc3)C(=O)N[C@@H](CC(=O)O)C(=O)N[C@@H](CCC(=O)O)C(=O)N[C@@H](CCC(=O)O)C(=O)N[C@@H](Cc3ccccc3)C(=O)N[C@@H](Cc3ccccc3)C(=O)N[C@@H]([C@@H](C)O)C(=O)N[C@@H](C)C(=O)N[C@@H](CC(C)C)C(=O)N[C@@H](C)C(=O)N[C@@H](CCCNC(=N)N)C(=O)N[C@@H](CC(C)C)C(=O)N[C@@H](CCCNC(=N)N)C(=O)NCC(=O)NCC(=O)N[C@@H](CC(=O)O)C(=O)N[C@@H]([C@@H](C)CC)C(=O)N2)NC(=O)[C@H](CC(C)C)NC(=O)[C@H](C)NC(=O)[C@@H]2CCCN2C(=O)[C@H](CC(C)C)NC(=O)[C@H](Cc2ccc(O)cc2)NC(=O)[C@H](CCC(N)=O)NC(=O)[C@H](Cc2ccccc2)NC(=O)[C@H](CCCCN)NC(=O)[C@H](C)NC(=O)[C@H](CCC(N)=O)NC1=O` [Compound C298], in data set [1] (setting [4]), the “% Uptake of C306” value came to 37%. Also, the “Percent uptake of control miniprotein C306 in the presence of exemplary miniprotein” value in data set [1] (opossum kidney proximal tubule cells, 1 h at 37° C.) came out at 37%.
“{DOTA-PEG4}-CEYDEQFFTALKRLRGADICSYIQASFQYLPGLCIEEILDNLGCS-OH (disulfide 1-34, 20-44) [Compound C250]”: in data set [2], the half-life is more than 12 h. For the same compound, the half-life in data set [2] (plasma) was more than 12 h. In data set [3], the tissue uptake at 4 h is 67.5 %ID/g and the tissue uptake at 24 h amounted to 34.9 %ID/g.
With “C306: control miniprotein of the proximal tubule cell uptake assay ({Biotin-PEG4′}-CEYDEEFFTALKRLRGGDICYYIKKKFKKVPKLCIEEILDKLGC-NH2; disulfide 1-34, 20-44) [Compound C306, reference compound]”, the “% Uptake of C306 (Control)” value in data set [1] (1 h at 37° C.) was 100%.
Consider “{Biotin-PEG4}-CEYDEEFFTAL[Lys(Me)]RLRGGDICQYIQA[Lys(Me3)]FQYLPALCIEEILDNLGCS-OH (disulfide 1-34, 20-44) [Compound C302]”, for which the “% Uptake of C306” value in data set [1] (setting [4]) is listed as 2%.
Turning to “{DOTA-PEG4}-CEYDEEFFTALARLRGDDICSYIQAKFQYLPGLCIEEILDNLGCS-OH (disulfide 1-34, 20-44 (inferred)) [Compound C293]”, the half-life in data set [2] and in data set [2] (plasma) was more than 12 h throughout. Moreover, in data set [3], the tissue uptake at 4 h was determined as 55.8 %ID/g. This compound also returned a tissue uptake at 24 h in data set [3] of 32.6 %ID/g.
